# Results taken from patent US20190239509A1, “METHOD OF CONTROLLING PLANTS” (SYNGENTA PARTICIPATIONS AG, priority 2016, published 2019).
# Columns and labels:
# Assay type in all cases: in vivo
# [1] = system: Digitaria horizontalis (DIGHO); experiment: B3 drilled field trial Brazil, post-emergence, DIGHO; settings: Summer season, 28 days after application
# Method: (§1) Seeds of a variety of test species were used in drilled field trials to look at the control of important weed species present in corn crops as well as the effect on soybean (a volunteer crop in corn). Trials were carried out in Brazil in the summer season and the second season.
# (§2) Plot size was 10-15 m^2, and two replicates were carried out per treatment. Plants were treated post-emergence between the 2 and 4 leaf stage. Species tested were Amaranthus retroflexus (AMARE), Ipomoea grandifolia (IAQGR), Digitaria horizontalis (DIGHO), Bidens pilosa (BIDPI), Eleusine indica (ELEIN), Brachiaria decumbens (BRADC), Centrus echinatus (CCHEC), Euphorbia heterophylla (EPPHL), Brachiaria plantaginea (BRAPL) and Glycine max (GLXMA; soybean). Fungicides and insecticides were used as necessary for plant health. The test was evaluated at 28 days after application with 100=total damage to plant and 0=no damage to plant.
# (§3) Expected results were calculated using the Colby Formula.
# Bidens pilosa (BIDPI) = experiment: B3 drilled field trial Brazil, post-emergence, BIDPI; settings: 28 days after application
# Method: as §1, §2, §3
# Eleusine indica (ELEIN) = experiment: B3 drilled field trial Brazil, post-emergence, ELEIN; settings: 28 days after application
# Method: as §1, §2, §3
# [2] = system: Brachiaria decumbens (BRADC); experiment: B3 drilled field trial Brazil, post-emergence, BRADC; settings: 28 days after application
# Method: as §1, §2, §3
# [3] = system: Centrus echinatus (CCHEC); experiment: B3 drilled field trial Brazil, post-emergence, CCHEC; settings: 28 days after application
# Method: as §1, §2, §3
# [4] = system: Euphorbia heterophylla (EPPHL); experiment: B3 drilled field trial Brazil, post-emergence, EPPHL; settings: Summer season, 28 days after application
# Method: as §1, §2, §3
# [5] = system: Brachiaria plantaginea (BRAPL); experiment: B3 drilled field trial Brazil, post-emergence, BRAPL; settings: Summer season, 28 days after application
# Method: as §1, §2, §3
# [6] = system: Glycine max (GLXMA; soybean); experiment: B3 drilled field trial Brazil, post-emergence, soybean; settings: 28 days after application
# Method: as §1, §2, §3
smiles,measurement,setting,value
CCOC1C(O)N(c2cc(C(C)(C)C)on2)C(=O)N1C (stereo not drawn) [Compound 1.4],"Observed damage (100=total damage to plant, 0=no damage)",[1]; 75 g ai/ha,45
same,"Observed damage (100=total damage to plant, 0=no damage)",[1]; 100 g ai/ha,45
same,"Observed damage (100=total damage to plant, 0=no damage)",[1]; 150 g ai/ha,69
same,"Observed damage (100=total damage to plant, 0=no damage)","Bidens pilosa (BIDPI); Second season, 50 g ai/ha",46
same,"Observed damage (100=total damage to plant, 0=no damage)","Bidens pilosa (BIDPI); Second season, 75 g ai/ha",46
same,"Observed damage (100=total damage to plant, 0=no damage)","Bidens pilosa (BIDPI); Second season, 100 g ai/ha",48
same,"Observed damage (100=total damage to plant, 0=no damage)","Bidens pilosa (BIDPI); Second season, 150 g ai/ha",60
same,"Observed damage (100=total damage to plant, 0=no damage)","Bidens pilosa (BIDPI); Summer season, 50 g ai/ha",18
same,"Observed damage (100=total damage to plant, 0=no damage)","Bidens pilosa (BIDPI); Summer season, 75 g ai/ha",38
same,"Observed damage (100=total damage to plant, 0=no damage)","Bidens pilosa (BIDPI); Summer season, 100 g ai/ha",28
same,"Observed damage (100=total damage to plant, 0=no damage)","Bidens pilosa (BIDPI); Summer season, 150 g ai/ha",47
same,"Observed damage (100=total damage to plant, 0=no damage)","Eleusine indica (ELEIN); Second season, 50 g ai/ha",8
same,"Observed damage (100=total damage to plant, 0=no damage)","Eleusine indica (ELEIN); Second season, 75 g ai/ha",11
same,"Observed damage (100=total damage to plant, 0=no damage)","Eleusine indica (ELEIN); Second season, 100 g ai/ha",11
same,"Observed damage (100=total damage to plant, 0=no damage)","Eleusine indica (ELEIN); Second season, 150 g ai/ha",14
same,"Observed damage (100=total damage to plant, 0=no damage)","Eleusine indica (ELEIN); Summer season, 50 g ai/ha",18
same,"Observed damage (100=total damage to plant, 0=no damage)","Eleusine indica (ELEIN); Summer season, 75 g ai/ha",25
same,"Observed damage (100=total damage to plant, 0=no damage)","Eleusine indica (ELEIN); Summer season, 100 g ai/ha",33
same,"Observed damage (100=total damage to plant, 0=no damage)","Eleusine indica (ELEIN); Summer season, 150 g ai/ha",53
same,"Observed damage (100=total damage to plant, 0=no damage)","[2]; Second season, 50 g ai/ha",13
same,"Observed damage (100=total damage to plant, 0=no damage)","[2]; Second season, 75 g ai/ha",21
same,"Observed damage (100=total damage to plant, 0=no damage)","[2]; Second season, 100 g ai/ha",25
same,"Observed damage (100=total damage to plant, 0=no damage)","[2]; Second season, 150 g ai/ha",43
same,"Observed damage (100=total damage to plant, 0=no damage)","[2]; Summer season, 50 g ai/ha",18
same,"Observed damage (100=total damage to plant, 0=no damage)","[2]; Summer season, 75 g ai/ha",28
same,"Observed damage (100=total damage to plant, 0=no damage)","[2]; Summer season, 100 g ai/ha",25
same,"Observed damage (100=total damage to plant, 0=no damage)","[2]; Summer season, 150 g ai/ha",30
same,"Observed damage (100=total damage to plant, 0=no damage)","[3]; Second season, 50 g ai/ha",0
same,"Observed damage (100=total damage to plant, 0=no damage)","[3]; Second season, 75 g ai/ha",0
same,"Observed damage (100=total damage to plant, 0=no damage)","[3]; Second season, 100 g ai/ha",0
same,"Observed damage (100=total damage to plant, 0=no damage)","[3]; Second season, 150 g ai/ha",0
same,"Observed damage (100=total damage to plant, 0=no damage)","[3]; Summer season, 50 g ai/ha",0
same,"Observed damage (100=total damage to plant, 0=no damage)","[3]; Summer season, 75 g ai/ha",0
same,"Observed damage (100=total damage to plant, 0=no damage)","[3]; Summer season, 100 g ai/ha",0
same,"Observed damage (100=total damage to plant, 0=no damage)","[3]; Summer season, 150 g ai/ha",0
same,"Observed damage (100=total damage to plant, 0=no damage)",[4]; 50 g ai/ha,38
same,"Observed damage (100=total damage to plant, 0=no damage)",[4]; 75 g ai/ha,58
same,"Observed damage (100=total damage to plant, 0=no damage)",[4]; 100 g ai/ha,46
same,"Observed damage (100=total damage to plant, 0=no damage)",[4]; 150 g ai/ha,52
same,"Observed damage (100=total damage to plant, 0=no damage)",[5]; 50 g ai/ha,13
same,"Observed damage (100=total damage to plant, 0=no damage)",[5]; 75 g ai/ha,34
same,"Observed damage (100=total damage to plant, 0=no damage)",[5]; 100 g ai/ha,30
same,"Observed damage (100=total damage to plant, 0=no damage)",[5]; 150 g ai/ha,31
same,"Observed damage (100=total damage to plant, 0=no damage)","[6]; Second season, 50 g ai/ha",44
same,"Observed damage (100=total damage to plant, 0=no damage)","[6]; Second season, 75 g ai/ha",56
same,"Observed damage (100=total damage to plant, 0=no damage)","[6]; Second season, 100 g ai/ha",79
same,"Observed damage (100=total damage to plant, 0=no damage)","[6]; Second season, 150 g ai/ha",86
same,"Observed damage (100=total damage to plant, 0=no damage)","[6]; Summer season, 50 g ai/ha",44
same,"Observed damage (100=total damage to plant, 0=no damage)","[6]; Summer season, 75 g ai/ha",49
same,"Observed damage (100=total damage to plant, 0=no damage)","[6]; Summer season, 100 g ai/ha",60
same,"Observed damage (100=total damage to plant, 0=no damage)","[6]; Summer season, 150 g ai/ha",83
